In general, MIC refers to the least concentration at which growth counts as inhibited.

Values after ≈ are worked out from the molar mass of the structure shown.

Assay type in all cases: cell-based
The subject of experiment [1] is Staphylococcus aureus NRS384 (MRSA). Description: Broth microdilution MIC, S. aureus NRS384 (MRSA). Conditions: Staphylococcus aureus; broth microdilution, 37° C., 20 hours; read-out: MIC NRS 384 (MRSA). In short, it runs like this: (§1)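 Two-fold dilutions from 64 to 0.0625 μg/ml final, 1% DMSO, were inoculated at ~5.0×10^5 cfu/ml in the strain's test medium and kept 20 h at 37 °C in ambient atmosphere. Colonies were grown on MHA, with S. pneumoniae on blood agar under 5% CO2.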
On the technique in general: Broth dilution looks for growth in wells or tubes with falling amounts of substance.

Experiment [2] deals with Staphylococcus aureus ATCC 29213 (MSSA). Description: Broth microdilution MIC, S. aureus ATCC 29213 (MSSA). Conditions: broth microdilution, 37° C., 20 hours, read-out: MIC S. aureus ATCC 29213 (MSSA). In a few lines: as §1
For experiment [3], the system named is Enterococcus faecalis ATCC 29212. The experiment can be described thus: Broth microdilution MIC, E. faecalis ATCC 29212. Conditions: ATCC29212, broth microdilution, 37° C., 20 hours, read-out: MIC E. faecalis ATCC 29212. In a few lines: as §1
The test system of experiment [4] is Enterococcus faecium ATCC 700221 (VRE). Description: Broth microdilution MIC, E. faecium ATCC 700221 (VRE). As to conditions: Enterococcus faecium; broth microdilution, 37° C., 20 hours; read-out: MIC E. faecium ATCC 700221 (VRE). In a few lines:
as §1

The subject of experiment [5] is Streptococcus pneumoniae ATCC 49619. Description: Broth microdilution MIC, S. pneumoniae ATCC 49619. As to conditions: ATCC49619, broth microdilution, 37° C., 20 hours, read-out: MIC S. pneumoniae ATCC 49619. In a few lines: as §1
Experiment [6] has as its system Bacillus subtilis ATCC 6633. The experiment can be described thus: Broth microdilution MIC, B. subtilis ATCC 6633. Conditions: ATCC6633, broth microdilution, 37° C., 20 hours, read-out: MIC B. subtilis ATCC 6633. In short, it runs like this:
as §1

Experiment [7] concerns Escherichia coli ATCC 25922. Description: Broth microdilution MIC, E. coli ATCC 25922 (MHIIB w & w/o 4 mM EDTA). Conditions: broth microdilution, 37° C., 20 hours; for MIC: Escherichia coli, ATCC25922, without EDTA, read-out: MIC E. coli ATCC 25922; for MIC E. coli ATCC 25922 + 4 mM EDTA: with 4 mM EDTA. In a few lines: as §1

On to `CN(C)C(=O)c1nn(C)c2c(=O)[nH]c(NCc3ccc(Cl)c(Cl)c3)nc12` [Compound 43, 5-((3,4-Dichlorobenzyl)amino)-N,N, 1-trimethyl-7-oxo-6,7-dihydro-1H-pyrazolo[4,3-d]pyrimidine-3-carboxamide], for which the MIC in experiment [1] was > 64 µg/mL; in experiment [2] it was > 64 µg/mL; in experiment [3], > 64 µg/mL; in experiment [4], > 64 µg/mL; in experiment [5] it was 64 µg/mL (≈ 162 µM); in experiment [6], 64 µg/mL (≈ 162 µM). Besides, the MIC in experiment [7] was > 64 µg/mL. In addition, the “MIC E. coli ATCC 25922 + 4 mM EDTA” value in experiment [7] is >64 µg/mL.
In the case of `CC(CO)n1ncc2nc(NCc3ccc(Cl)c(Cl)c3)[nH]c(=O)c21` (stereo not drawn) [Compound 228, 5-((3,4-dichlorobenzyl)amino)-1-(1-hydroxypropan-2-yl)-1H-pyrazolo[4,3-d]pyrimidin-7(6H)-one], the minimal inhibitory concentration (MIC) in experiment [1] came out at 8 µg/mL (≈ 21.7 µM); in experiment [2] it was 16 µg/mL (≈ 43.5 µM); in experiment [3] it was 16 µg/mL (≈ 43.5 µM); in experiment [4] it was 8 µg/mL (≈ 21.7 µM); in experiment [5], 8 µg/mL (≈ 21.7 µM); in experiment [6] it was 4 µg/mL (≈ 10.9 µM). Also, the MIC in experiment [7] was > 64 µg/mL. The “MIC E. coli ATCC 25922 + 4 mM EDTA” value in experiment [7] stood at 64 µg/mL.
`CN1CC2CC1CN2CCn1ncc2nc(NCc3ccc(Cl)c(Cl)c3)[nH]c(=O)c21.Cl.Cl` (stereo not drawn) [Compound 69, 5-((3,4-Dichlorobenzyl)amino)-1-(2-(5-methyl-2,5-diazabicyclo[2.2.1]heptan-2-yl)ethyl)-1H-pyrazolo[4,3-d]pyrimidin-7(6H)-one dihydrochloride]: the MIC is 64 µg/mL in experiment [1]; 32 µg/mL in experiment [2]; 32 µg/mL in experiment [3]; > 64 µg/mL in experiment [4]; 8 µg/mL in experiment [5]; 4 µg/mL in experiment [6]. For the same molecule, the minimal inhibitory concentration (MIC) in experiment [7] is > 64 µg/mL. For the same molecule, in experiment [7], the “MIC E. coli ATCC 25922 + 4 mM EDTA” value is >64 µg/mL.
With `CN(C)CC(O)C(O)C(=O)N1CCC(n2ncc3nc(NCc4ccc(Cl)c(Cl)c4)[nH]c(=O)c32)CC1.Cl` (stereo not drawn) [Compound 277, 5-((3,4-dichlorobenzyl)amino)-1-(1-(4-(dimethylamino)-2,3-dihydroxybutanoyl)piperidin-4-yl)-1H-pyrazolo[4,3-d]pyrimidin-7(6H)-one hydrochloride], the MIC in experiment [1] is 64 µg/mL; in experiment [2], > 64 µg/mL; in experiment [3] it was 64 µg/mL; in experiment [4], 32 µg/mL; in experiment [5] it was 16 µg/mL; in experiment [6] it was 16 µg/mL. Moreover, the MIC in experiment [7] is > 64 µg/mL. Besides, the “MIC E. coli ATCC 25922 + 4 mM EDTA” value in experiment [7] was >64 µg/mL.
Consider `Cn1ncc2nc(NCc3nc4ccccc4s3)[nH]c(=O)c21` [Compound 18, 5-((Benzo[d]thiazol-2-ylmethyl)amino)-1-methyl-1H-pyrazolo[4,3-d]pyrimidin-7(6H)-one], for which the MIC in experiment [1], in experiment [2], in experiment [3], in experiment [4], in experiment [5] and in experiment [6] was > 64 µg/mL each time. In experiment [7], the minimum inhibitory concentration (MIC) was > 64 µg/mL. The “MIC E. coli ATCC 25922 + 4 mM EDTA” value in experiment [7] was >64 µg/mL.
Take `Cn1ncc2nc(NCc3cccc(Cl)c3)[nH]c(=O)c21` [Compound 26, 5-((3-Chlorobenzyl)amino)-1-methyl-1H-pyrazolo[4,3-d]pyrimidin-7(6H)-one]: the MIC in experiment [1] turned out to be 32 µg/mL (≈ 110 µM); in experiment [2] it was 32 µg/mL (≈ 110 µM); in experiment [3] it was 64 µg/mL (≈ 221 µM); in experiment [4] it was 32 µg/mL (≈ 110 µM); in experiment [5] it was 16 µg/mL (≈ 55.2 µM); in experiment [6] it was 16 µg/mL (≈ 55.2 µM). The minimal inhibitory concentration (MIC) in experiment [7] was > 64 µg/mL. Further, the “MIC E. coli ATCC 25922 + 4 mM EDTA” value in experiment [7] was found to be 64 µg/mL.
For the molecule `Cl.O=C(c1ccncc1)N1CCC(n2ncc3nc(NCc4ccc(Cl)c(Cl)c4)[nH]c(=O)c32)CC1` [Compound 252, 5-((3,4-dichlorobenzyl)amino)-1-(1-isonicotinoylpiperidin-4-yl)-1H-pyrazolo[4,3-d]pyrimidin-7(6H)-one hydrochloride], the MIC in experiment [1] is 4 µg/mL; in experiment [2] it was 4 µg/mL; in experiment [3], 4 µg/mL; in experiment [4], 2 µg/mL; in experiment [5] it was 2 µg/mL; in experiment [6], 1 µg/mL. In addition, the MIC in experiment [7] was > 64 µg/mL. The “MIC E. coli ATCC 25922 + 4 mM EDTA” value in experiment [7] was >64 µg/mL.
Regarding `O=c1[nH]c(NCc2ccc(Cl)c(Cl)c2)nc2cnn(CCOCCO)c12` [Compound 88, 5-((3,4-dichlorobenzyl)amino)-1-(2-(2-hydroxyethoxy)ethyl)-1H-pyrazolo[4,3-d]pyrimidin-7(6H)-one], the MIC in experiment [1] was 4 µg/mL (≈ 10 µM); in experiment [2] it was 4 µg/mL (≈ 10 µM); in experiment [3], 4 µg/mL (≈ 10 µM); in experiment [4] it was 2 µg/mL (≈ 5.02 µM); in experiment [5], 2 µg/mL (≈ 5.02 µM); in experiment [6] it was 2 µg/mL (≈ 5.02 µM). The minimum inhibitory concentration (MIC) in experiment [7] was > 64 µg/mL. For the same molecule, in experiment [7], the “MIC E. coli ATCC 25922 + 4 mM EDTA” value is >64 µg/mL.
With `CC(C(=O)O)n1ncc2nc(NCc3ccc(Cl)c(Cl)c3)[nH]c(=O)c21` (stereo not drawn) [Compound 226, 2-(5-((3,4-dichlorobenzyl)amino)-7-oxo-6,7-dihydro-1H-pyrazolo[4,3-d]pyrimidin-1-yl)propanoic acid], the MIC in experiment [1] is 64 µg/mL (≈ 167 µM); in experiment [2], > 64 µg/mL; in experiment [3] it was > 64 µg/mL; in experiment [4], 64 µg/mL (≈ 167 µM); in experiment [5], > 64 µg/mL; in experiment [6] it was 64 µg/mL (≈ 167 µM). Also, the MIC in experiment [7] was > 64 µg/mL. Besides, the “MIC E. coli ATCC 25922 + 4 mM EDTA” value in experiment [7] was >64 µg/mL.
Take `O=c1[nH]c(NCc2ccc(Cl)c(Cl)c2)nc2cn(C3COC3)nc12` [Compound 143, 5-((3,4-Dichlorobenzyl)amino)-2-(oxetan-3-yl)-2H-pyrazolo[4,3-d]pyrimidin-7(6H)-one]: the MIC turned out to be 32 µg/mL (≈ 87.4 µM) in experiment [1]; 64 µg/mL (≈ 175 µM) in experiment [2]; 32 µg/mL (≈ 87.4 µM) in experiment [3]; 32 µg/mL (≈ 87.4 µM) in experiment [4]; 16 µg/mL (≈ 43.7 µM) in experiment [5]; 16 µg/mL (≈ 43.7 µM) in experiment [6]. The MIC in experiment [7] is > 64 µg/mL. In addition, the “MIC E. coli ATCC 25922 + 4 mM EDTA” value in experiment [7] was >64 µg/mL.
Consider `NS(=O)(=O)CCn1ncc2nc(NCc3ccc(Cl)c(Cl)c3)[nH]c(=O)c21` [Compound 237, 2-(5-((3,4-dichlorobenzyl)amino)-7-oxo-6,7-dihydro-1H-pyrazolo[4,3-d]pyrimidin-1-yl)ethanesulfonamide], for which the minimal inhibitory concentration (MIC) in experiment [1] turned out to be 32 µg/mL (≈ 76.7 µM); in experiment [2], 32 µg/mL (≈ 76.7 µM); in experiment [3], 32 µg/mL (≈ 76.7 µM); in experiment [4], 16 µg/mL (≈ 38.3 µM); in experiment [5] it was 4 µg/mL (≈ 9.59 µM); in experiment [6], 16 µg/mL (≈ 38.3 µM). Further, the minimum inhibitory concentration (MIC) in experiment [7] was > 64 µg/mL. For the same molecule, the “MIC E. coli ATCC 25922 + 4 mM EDTA” value in experiment [7] came out at 64 µg/mL.
Consider `Cl.O=C(c1ccccn1)N1CCC(n2ncc3nc(NCc4ccc(Cl)c(Cl)c4)[nH]c(=O)c32)CC1` [Compound 255, 5-((3,4-Dichlorobenzyl)amino)-1-(1-picolinoylpiperidin-4-yl)-1H-pyrazolo[4,3-d]pyrimidin-7(6H)-one hydrochloride], for which the minimum inhibitory concentration (MIC) was determined as 4 µg/mL in experiment [1]; 4 µg/mL in experiment [2]; 4 µg/mL in experiment [3]; 2 µg/mL in experiment [4]; 2 µg/mL in experiment [5]; 2 µg/mL in experiment [6]. Further, the MIC in experiment [7] was > 64 µg/mL. In addition, in experiment [7], the “MIC E. coli ATCC 25922 + 4 mM EDTA” value is >64 µg/mL.
`Cl.O=C(c1cnc[nH]1)N1CCC(n2ncc3nc(NCc4ccc(Cl)c(Cl)c4)[nH]c(=O)c32)CC1` [Compound 270, 1-(1-(1H-imidazole-5-carbonyl)piperidin-4-yl)-5-((3,4-dichlorobenzyl)amino)-1H-pyrazolo[4,3-d]pyrimidin-7(6H)-one hydrochloride]: the MIC in experiment [1] worked out at 16 µg/mL; in experiment [2], 16 µg/mL; in experiment [3], 8 µg/mL; in experiment [4] it was 4 µg/mL; in experiment [5] it was 8 µg/mL; in experiment [6], 4 µg/mL. Further, the MIC in experiment [7] was > 64 µg/mL. The “MIC E. coli ATCC 25922 + 4 mM EDTA” value in experiment [7] was >64 µg/mL.
As to `Cn1ncc2nc(NCc3cnccn3)[nH]c(=O)c21` [Compound 12, 1-Methyl-5-((pyrazin-2-ylmethyl)amino)-1H-pyrazolo[4,3-d]pyrimidin-7(6H)-one], the minimal inhibitory concentration (MIC) in experiment [1], in experiment [2], in experiment [3], in experiment [4], in experiment [5] and in experiment [6] was > 64 µg/mL in each case. Moreover, the MIC in experiment [7] is > 64 µg/mL. In addition, the “MIC E. coli ATCC 25922 + 4 mM EDTA” value in experiment [7] was >64 µg/mL.
For `COCc1nnc(CCn2ncc3nc(NCc4ccc(Cl)c(Cl)c4)[nH]c(=O)c32)o1.Cl` [Compound 235, 5-((3,4-dichlorobenzyl)amino)-1-(2-(5-(methoxymethyl)-1,3,4-oxadiazol-2-yl)ethyl)-1H-pyrazolo[4,3-d]pyrimidin-7(6H)-one hydrochloride], the MIC amounted to 16 µg/mL in experiment [1]; 8 µg/mL in experiment [2]; 8 µg/mL in experiment [3]; 4 µg/mL in experiment [4]; 8 µg/mL in experiment [5]; 4 µg/mL in experiment [6]. In addition, in experiment [7], the MIC was > 64 µg/mL. Moreover, the “MIC E. coli ATCC 25922 + 4 mM EDTA” value in experiment [7] was >64 µg/mL.

These data come from US10723741B1, “DNA polymerase IIIC inhibitors and use thereof” (Acurx Pharmaceuticals, LLC, priority 2018, dated 2020).
